According to patent publication US20190054051A1, “DOPA Formulations for Treatments of Parkinson's Disease” (The Board of Trustees of the Leland Stanford Junior …, priority 2017, published 2019):

Assays:
Format in all cases: in vivo, mice
GRK3 = assay: Western blot of GRK3 in intact and lesioned striatum; conditions: normalized to actin; formulation and ranitidine groups compared with the DOPA-treated group, Bonferroni post-hoc
Experimental: (§1) After behavioral testing, mice again received their assigned injection and then, 45 minutes later, were decapitated under anesthesia. Tissue samples were processed as follows. Briefly, the brain was dissected, rapidly frozen on dry ice, and stored at −80° C. Striatal tissue was collected from 100 μm coronal slices cut at the level of striatum using a cryostat (Leica CM1950, Leica Biosystems Inc, Buffalo Groove, Ill.). Striatal samples from the intact and the lesioned hemisphere were separately collected in 150p1 of lysis solution (Totally RNA, Ambion, Austin, Tex.). Care was taken to make sure that the tissue samples were collected from similar regions in all the brain samples analyzed, since there are differences in the expression of GRKs from rostral to caudal CPu. […]
(§2) Western blots were quantified using band densitometry in Image J software (NIH version). […] Results are represented as group mean±SEM and analyzed using one-way or repeated-measures ANOVA (RM-ANOVA), with post hoc Bonferroni tests. The mouse cylinder test was analyzed with RM-ANOVA, with group (DOPA and DOPA-ranitidine formulations) as a between-group factor and saline vs. DOPA treatment as a within-group factor. AIMs scores were analyzed using the Kruskal Wallis test for pre-testing (DOPA injected animals) and the Mann-Whitney U test for the post-testing sessions (DOPA vs DOPA-ranitidine formulations). […]

GRK6 = assay: Western blot of GRK6 in intact and lesioned striatum; conditions: normalized to actin
Experimental: as §1, §2

ERK = assay: Western blot of ppERK and total ERK in striatum; conditions: 45 minutes after last injection
Experimental: as §1, §2

SAPK/JNK = assay: Western blot of phospho SAPK/JNK and total SAPK/JNK in striatum
Experimental: as §1, §2

Row | SMILES | GRK3 in the lesioned hemisphere as % expression of the intact side (GRK3) | GRK6 in the lesioned hemisphere versus the intact control side (GRK6) | ERK phosphorylation (ppERK) in the lesioned hemisphere (ERK) | phosphorylation of p54 versus the ranitidine/DOPA formulation groups (SAPK/JNK; ranitidine alone group) | phospho JNK level in both the intact and the lesioned hemispheres (SAPK/JNK; no differences between hemispheres)
1 | CN/C(=C\[N+](=O)[O-])NCCSCc1ccc(CN(C)C)o1 [Ranitidine, N-(2-[(5-[(dimethylamino)methyl]furan-2-yl)methylthio]ethyl)-N′-methyl-2-nitroethene-1,1-diamine] | significantly attenuated | enhanced the expression | increased | reduced in both the intact and lesioned hemispheres | –
2 | N[C@@H](Cc1ccc(O)c(O)c1)C(=O)O [L-DOPA, L-3,4-dihydroxyphenylalanine] | significantly reduced in the lesioned hemisphere | Only a marginal degree of down regulation | increased | – | elevated
